# Assay results: patent US20220177508A1, “C10-Cyclic Substituted 13-Membered Macrolides and Uses Thereof” (Zikani Therapeutics, Inc., priority 2018, published 2022)
# Assays:
# Type in all cases: cell-based
# [1] = test system: S. aureus MP-12; assay: Broth dilution MIC determination (CLSI), S. aureus MP-12; conditions: Staphylococcus aureus, MP12; strain MP-12, broth dilution
# [2] = test system: E. coli MP-4; assay: Broth dilution MIC determination (CLSI), E. coli MP-4; conditions: Escherichia coli, MP4; strain MP-4, broth dilution; read-out: MIC E. coli MP-4
# [3] = test system: K. pneumoniae MP-546; assay: Broth dilution MIC determination (CLSI), K. pneumoniae MP-546; conditions: Klebsiella pneumoniae, MP546; strain MP-546, broth dilution
# [4] = test system: K. pneumoniae MP-648; assay: Broth dilution MIC determination (CLSI), K. pneumoniae MP-648; conditions: Klebsiella pneumoniae, MP648; strain MP-648, broth dilution
# [5] = test system: P. aeruginosa MP-3; assay: Broth dilution MIC determination (CLSI), P. aeruginosa MP-3; conditions: Pseudomonas aeruginosa, MP3; strain MP-3, broth dilution
# [6] = test system: A. baumannii MP-15; assay: Broth dilution MIC determination (CLSI), A. baumannii MP-15; conditions: Acinetobacter baumannii, MP15; strain MP-15, broth dilution; read-out: MIC A. baumanii MP-15
SMILES,MIC [1] [µg/mL],MIC [2] [µg/mL],MIC [3] [µg/mL],MIC [4] [µg/mL],MIC [5] [µg/mL],MIC [6] [µg/mL]
"CO[C@]1(C)C[C@@H](C)CN(C)[C@H](C2CN(Cc3ccn(C)n3)C2)COC(=O)C(C)(C)C(=O)[C@H](C)[C@H]1O[C@@H]1O[C@H](C)C[C@H](N(C)C)[C@H]1O [Compound 16, (3R,6R,8R,9R,10R)-9-(((2S,3R,4S,6R)-4-(dimethylamino)-3-hydroxy-6-methyltetrahydro-2H-pyran-2-yl)oxy)-8-methoxy-4,6,8,10,12,12-hexamethyl-3-(1-((1-methyl-1H-pyrazol-3-yl)methyl)azetidin-3-yl)-1-oxa-4-azacyclotridecane-11,13-dione]",4 to 32,< 4,4 to 32,4 to 32,> 32,> 32
"CO[C@]1(C)C[C@@H](C)CN(C)[C@H](C2CN(C(=O)CC(C)(C)CN(C)CC3CC3)C2)COC(=O)C(C)(C)C(=O)[C@H](C)[C@H]1O[C@@H]1O[C@H](C)C[C@H](N(C)C)[C@H]1O [Compound 25, (3R,6R,8R,9R,10R)-3-(1-(4-((cyclopropylmethyl)(methyl)amino)-3,3-dimethylbutanoyl)azetidin-3-yl)-9-(((2S,3R,4S,6R)-4-(dimethylamino)-3-hydroxy-6-methyltetrahydro-2H-pyran-2-yl)oxy)-8-methoxy-4,6,8,10,12,12-hexamethyl-1-oxa-4-azacyclotridecane-11,13-dione]",4 to 32,< 4,< 4,4 to 32,> 32,> 32
"CO[C@]1(C)C[C@@H](C)CN(C)[C@H]([C@H]2C[C@H](N(C)C)C2)COC(=O)C(C)(C)C(=O)[C@H](C)[C@H]1O[C@@H]1O[C@H](C)C[C@H](N(C)C)[C@H]1O [Compound 30, (3R,6R,8R,9R,10R)-9-(((2S,3R,4S,6R)-4-(dimethylamino)-3-hydroxy-6-methyltetrahydro-2H-pyran-2-yl)oxy)-3-((1r,3R)-3-(dimethylamino)cyclobutyl)-8-methoxy-4,6,8,10,12,12-hexamethyl-1-oxa-4-azacyclotridecane-11,13-dione]",4 to 32,< 4,< 4,< 4,> 32,> 32
"CO[C@]1(C)C[C@@H](C)CN(C)[C@@H](C2CN(C(=O)CN(C)C)C2)COC(=O)C(C)(C)C(=O)[C@H](C)[C@H]1O[C@@H]1O[C@H](C)C[C@H](N(C)C)[C@H]1O [Compound 184, (3S,6R,8R,9R,10R)-9-(((2S,3R,4S,6R)-4-(dimethylamino)-3-hydroxy-6-methyltetrahydro-2H-pyran-2-yl)oxy)-3-(1-(dimethylglycyl)azetidin-3-yl)-8-methoxy-4,6,8,10,12,12-hexamethyl-1-oxa-4-azacyclotridecane-11,13-dione]",4 to 32,< 4,< 4,–,> 32,> 32
CO[C@]1(C)C[C@@H](C)CN(C)[C@H](c2ccc(-c3cccnc3)cc2)COC(=O)C(C)(C)C(=O)[C@H](C)[C@@H]1O[C@@H]1O[C@@H](C)C[C@H](N(C)C)[C@H]1O [Compound 188],> 32,> 32,> 32,–,> 32,> 32
CO[C@]1(C)C[C@@H](C)CN(C)[C@@H](C2(CCN(C)CC3CC3)CC2)COC(=O)C(C)(C)C(=O)[C@H](C)[C@H]1O[C@@H]1O[C@H](C)C[C@H](N(C)C)[C@H]1O [Compound 196],> 32,4 to 32,–,> 32,> 32,> 32
CO[C@]1(C)C[C@@H](C)CN(C)[C@@H](C2(CCN(C)C(C)=O)CC2)COC(=O)C(C)(C)C(=O)[C@H](C)[C@H]1O[C@@H]1O[C@H](C)C[C@H](N(C)C)[C@H]1O [Compound 197],> 32,4 to 32,–,> 32,> 32,> 32
CO[C@]1(C)C[C@@H](C)CN(C)[C@](C)(C2CCN(C)CC2)COC(=O)C(C)(C)C(=O)[C@H](C)[C@H]1O[C@@H]1O[C@H](C)C[C@H](N(C)C)[C@H]1O [Compound 198],> 32,> 32,–,> 32,> 32,> 32
CO[C@]1(C)C[C@@H](C)CN[C@H](c2ccccc2)COC(=O)[C@H](C)C(=O)[C@H](C)[C@H]1O[C@@H]1OC(C)CC(N(C)C)C1O (stereo partly drawn) [Compound 204],> 32,> 32,> 32,–,> 32,> 32
CO[C@]1(C)C[C@@H](C)CN[C@@H](c2ccccc2)COC(=O)[C@H](C)C(=O)[C@H](C)[C@H]1O[C@@H]1OC(C)CC(N(C)C)C1O (stereo partly drawn) [Compound 205],> 32,> 32,> 32,–,> 32,> 32

# The remaining lines, values ahead:
MIC [1] [µg/mL],MIC [2] [µg/mL],MIC [3] [µg/mL],MIC [4] [µg/mL],MIC [5] [µg/mL],MIC [6] [µg/mL],SMILES
4 to 32,< 4,< 4,< 4,> 32,> 32,"CO[C@]1(C)C[C@@H](C)CN(C)[C@@H](C2CCN(C(C)[C@H]3COC(C)(C)O3)CC2)COC(=O)C(C)(C)C(=O)[C@H](C)[C@H]1O[C@@H]1O[C@H](C)C[C@H](N(C)C)[C@H]1O (mixture of isomers) [Compound 172, (3S,6R,8R,9R,10R)-3-(1-(1-((S)-2,2-dimethyl-1,3-dioxolan-4-yl)ethyl)piperidin-4-yl)-9-(((2S,3R,4S,6R)-4-(dimethylamino)-3-hydroxy-6-methyltetrahydro-2H-pyran-2-yl)oxy)-8-methoxy-4,6,8,10,12,12-hexamethyl-1-oxa-4-azacyclotridecane-11,13-dione]"
> 32,< 4,4 to 32,4 to 32,> 32,> 32,"CO[C@]1(C)C[C@@H](C)CN(C)[C@H]([C@H]2C[C@@H](N(C)CC3CC3)C2)COC(=O)C(C)(C)C(=O)[C@H](C)[C@H]1O[C@@H]1O[C@H](C)C[C@H](N(C)C)[C@H]1O [Compound 18, (3R,6R,8R,9R,10R)-3-((1s,3S)-3-((cyclopropylmethyl)(methyl)amino)cyclobutyl)-9-(((2S,3R,4S,6R)-4-(dimethylamino)-3-hydroxy-6-methyltetrahydro-2H-pyran-2-yl)oxy)-8-methoxy-4,6,8,10,12,12-hexamethyl-1-oxa-4-azacyclotridecane-11,13-dione]"
4 to 32,4 to 32,> 32,> 32,> 32,> 32,"CO[C@]1(C)C[C@@H](C)CN(C)[C@H](C2CN(C(=O)[C@@H]3CCNC3)C2)COC(=O)C(C)(C)C(=O)[C@H](C)[C@H]1O[C@@H]1O[C@H](C)C[C@H](N(C)C)[C@H]1O [Compound 22, (3R,6R,8R,9R,10R)-9-(((2S,3R,4S,6R)-4-(dimethylamino)-3-hydroxy-6-methyltetrahydro-2H-pyran-2-yl)oxy)-8-methoxy-4,6,8,10,12,12-hexamethyl-3-(1-((R)-pyrrolidine-3-carbonyl)azetidin-3-yl)-1-oxa-4-azacyclotridecane-11,13-dione]"
4 to 32,< 4,< 4,< 4,> 32,> 32,"CO[C@]1(C)C[C@@H](C)CN(C)[C@H]([C@H]2C[C@H](N(C)CC3CC3)C2)COC(=O)C(C)(C)C(=O)[C@H](C)[C@H]1O[C@@H]1O[C@H](C)C[C@H](N(C)C)[C@H]1O [Compound 24, (3R,6R,8R,9R,10R)-3-((1r,3R)-3-((cyclopropylmethyl)(methyl)amino)cyclobutyl)-9-(((2S,3R,4S,6R)-4-(dimethylamino)-3-hydroxy-6-methyltetrahydro-2H-pyran-2-yl)oxy)-8-methoxy-4,6,8,10,12,12-hexamethyl-1-oxa-4-azacyclotridecane-11,13-dione]"
4 to 32,< 4,< 4,–,> 32,> 32,CO[C@]1(C)C[C@@H](C)CN(C)[C@@H](C2CCN(C[C@@H](N)CO)CC2)CO[C@@H](O)C(C)(C)C(=O)[C@H](C)[C@H]1O[C@@H]1O[C@H](C)C[C@H](N(C)C)[C@H]1O [Compound 199]
4 to 32,4 to 32,–,> 32,> 32,> 32,CO[C@]1(C)C[C@@H](C)CN(C)[C@@H](C2CCN(C[C@H](CO)N(C)C)CC2)CO[C@@H](O)C(C)(C)C(=O)[C@H](C)[C@H]1O[C@@H]1O[C@H](C)C[C@H](N(C)C)[C@H]1O [Compound 200]
> 32,4 to 32,–,> 32,> 32,> 32,CO[C@]1(C)C[C@@H](C)CN(C)[C@@H](C2CCN(C[C@@H]3COC(=O)N3)CC2)CO[C@@H](O)C(C)(C)C(=O)[C@H](C)[C@H]1O[C@@H]1O[C@H](C)C[C@H](N(C)C)[C@H]1O [Compound 201]
> 32,4 to 32,–,> 32,> 32,> 32,CO[C@]1(C)C[C@@H](C)CN(C)[C@@H](C2CCN(C[C@@H]3COC(=O)N3C)CC2)CO[C@@H](O)C(C)(C)C(=O)[C@H](C)[C@H]1O[C@@H]1O[C@H](C)C[C@H](N(C)C)[C@H]1O [Compound 202]
> 32,4 to 32,–,> 32,> 32,> 32,CO[C@]1(C)C[C@@H](C)CN(C)[C@H](C2CN(CC(=O)O)C2)COC(=O)C(C)(C)C(=O)[C@H](C)[C@H]1O[C@@H]1O[C@H](C)C[C@H](N(C)C)[C@H]1O [Compound 203]
